Experimental data from patent US9605015B2, “Polyene compound, method for preparing the same, and antifungal drug comprising novel polyene compound as active ingredient” (INHA-INDUSTRY PARTNERSHIP INSTITUTE, priority 2011, dated 2017).
Values after ≈ are worked out from the molar mass of the structure shown.

Experiments:
[1] = system: erythrocytes in defibrinated horse blood; assay: In vitro measurement of hemolytic activity; assay type: cell-based; settings: 37° C., 30 min
Protocol: The hemolytic assay for the polyene macrolides was performed by monitoring the ability of the macrolides to cause lysis of erythrocytes in defibrinated horse blood (Gene. 111:61-68, 1992). Samples (0.1 ml) with different polyene macrolide concentrations (10 to 500 μg/ml in DMSO) were prepared from stock solutions of the purified polyenes (5 mg/ml in DMSO). The diluted samples were mixed with 0.9 ml horse blood-phosphate-buffered saline (PBS), which consisted of PBS buffer containing 2.5% defibrinated horse blood (KisanBiotech, Korea), and incubated in a water bath at 37° C. Samples were collected at 30 min, centrifuged at 5,000 rpm for 5 min, and the OD540 was measured. One hundred percent hemolysis was defined as the OD540 value obtained from a suspension of 2.5% horse blood in distilled water, and 0.9 ml horse blood-PBS with the addition of 0.1 ml DMSO was used as a blank. Each experiment was performed in triplicate, and samples containing nystatin were used as standards.

[2] = system: Candida albicans ATCC 10231; assay: Antifungal activity analysis (growth inhibition in microtiter plates); assay type: cell-based; settings: Table 5
Protocol: The test organism used for the polyene macrolide bioactivity assays was Candida albicans ATCC 10231, which was grown in 120 μl of YM medium without NaCl (with an inoculum of 1,000 CFU per well) and 30 μl of diluted polyene macrolide samples. The antibiotics were diluted in methanol in series to ensure that concentrations resulting in no inhibition to complete inhibition of the growth of the test organism were used. The test organism cultures with diluted antibiotics were then incubated in 96-well microtiter plates at 30° C. without shaking. After 12, 14, and 16 h, growth was measured based on the optical density at 492 nm using a TECAN Infinite F50 microtiter plate reader. The optical density was plotted against the antibiotic concentration, and the MIC at which 50% of isolates are inhibited (MIC50) was estimated from the regression curve at 50% growth inhibition.

[3] = Solubility measurement in aqueous Tris-HCl buffer by UV spectrophotometry; assay type: physicochemical; settings: aqueous 10 mmol Tris-HCl buffer (pH 7.0)
Description: The polyene region of nystatin is extremely non-polar, which is presumed to promote hydrophobic interactions with sterols within the fungal cell membrane, and orients the polyol component of the molecule toward the internal aqueous channel. However, this low polarity also leads to significant difficulties in administration during human therapy. To investigate the effect of the additional N-acetyl-glucosamine moiety, the present inventors tested the solubility of the purified NPP as well as the nystatin A1 as a reference in an aqueous buffer solution of 10 mmol Tris-HCl (pH 7.0) using spectrophotometric methods.
Particularly, stock solutions of nystatin A1 (Sigma, N6261) standard (1.2 mg/ml) and the purified NPP (12 mg/ml) were prepared in methanol. A 100 μl portion of each stock was freeze-dried under vacuum for 24 h. Either 50 μl (nystatin A1) or 2 μl (NPP) of aqueous 10 mmol Tris-HCl buffer (pH 7.0) was added to the dry polyenes, and the solution was saturated by extensive (>15 min) vortexing. After centrifugation, polyene concentrations in the solution were determined by measuring UV absorbance spectra on SHIMADZU UV-1601 UV/Vis spectrophotometer after appropriate dilution. Specifically, the characteristic tetraene UV peak at 306 nm was used for quantification with experimentally determined extinction coefficients (J. Med. Chem. 49:2431-2439, 2006).

C[C@@H]1[C@H](O)[C@@H](C)/C=C/C=C/CC/C=C/C=C/C=C/C=C/C(O[C@H]2O[C@H](C)[C@@H](O)[C@H](N)[C@@H]2O)CC2O[C@](O)(CC(O)C(O)CCC(O)CC(O)CC(O)CC(=O)O[C@H]1C)CC(O)C2C(=O)O (some centres unmarked) [nystatin, nystatin A1]
HC50 ([1]; 2.5% defibrinated horse blood in PBS): 33 µg/mL
Hemolytic activity (HC50, μg/ml) ([1]; Table 5, horse blood): 33 ± 0.54 µg/mL
Antifungal activity (IC50, μg/ml) [2]: 0.43 ± 0.02 µg/mL
solubility ([3]; Table 5): 110 ± 30 µg/mL (≈ 119 µM)
solubility [3]: 110 µg/mL (≈ 119 µM)
